How the values were obtained:
lysosomes of DU145 cells = assay: Lysosomal stability assay (LysoTracker Red); assay type: cell-based, human
Procedure: Lysosoinal stability assay. Lysosomal stability was measured using the fluorescent dye LysoTracker Red (LTR). Cells were seeded overnight in 60 mm plates. The next day, medium was removed and replaced with medium containing 200 nM LTR. Cells were loaded with LTR for 30 minutes at 37° C. LTR was removed and cells were washed once with PBS, then medium containing the treatment was added for the indicated time. After treatment, cells were lifted with trypsin, washed once in PBS, and resuspended in 0.5 mL growth medium. LTR fluorescence was measured using FACS analysis (564-606 nm) as above. A decrease in fluorescence intensity corresponded to an increase in lysosomal pH, and a minimum of 10,000 events were scored for each sample.

ASMase = target: T1, ASMase (Homo sapiens, UniProt P17405); assay: Acid sphingomyelinase activity assay; assay type: cell-based; settings: DU145 cells, 10 μM
T1 construct: DU145 cells were lysed in 50 mM Tris (pH=7.4) using a probe sonicator; endogenous in cells; host or cells: DU145 (lysate of treated cells)
Procedure: Acid Sphingomyelinase Activity Assay. DU145 cells were lysed in 50 mM Tris (pH=7.4) using a probe sonicator. Cellular debris was removed after centrifugation at 3000×g for 10 minutes. Proteins (50 μg) were adjusted to a total volume of 100 μl and the reaction was started by adding 100 μl of the reaction mixture containing 1 mM EDTA, 250 mM sodium acetate (pH 5.0), 100 μM [choline-methyl-^14C] sphingomyelin and 0.1% Triton X. After incubation at 37° C. for one hour, the reaction was stopped by adding 1.5 ml of chloroform/methanol (2:1) and then 200 μl of water. Phases were separated by centrifugation at 2000×g for 5 minutes. Quantitation of the amount of released radioactive phosphocholine was determined by subjecting 400 μl of the upper phase to scintillation counting.

p38 MAPK = assay: Immunoblot of phosphorylated p38 MAPK; assay type: cell-based, human; settings: PPC-1/pcDNA3 vector control cells
Procedure: (§1) Immunoblot analysis. Cells were seeded in 60mm plates as described above and treated accordingly. Cells were lifted by gently scraping the plates, washed once with ice cold PBS and then lysed in lysis buffer (PBS, 1% Triton X-100, 10% glycerol) containing protease inhibitors pepstatin A (0.5 μg/ml), leupeptin (0.5 μg/ml), aprotinin (5 μg/ml), and PMSF (100 μg/ml) for 10 minutes on ice. Insoluble material was removed by centrifugation at 14,000 rpm for 15 minutes at 4° C. The supernatants were then supplemented with SDS at a final concentration of 2% and stored at −80° C. Protein concentrations were determined using the DC Protein Assay (BioRad Laboratories; Hercules, CA, USA) according to the manufacturer's instructions. 50 μg of protein per sample (unless otherwise indicated) were separated on NuPAGE 4-12% Bis-Tris gels (Invitrogen; Carlsbad, CA, USA) and transferred to nitrocellulose membranes (BioRad). Following transfer, membranes were blocked for 1 hour at room temperature in Tris-buffered saline (TBS) containing 0.1% Tween-20 and 5% nonfat dry milk and incubated overnight at 4° C. with primary antibody at a dilution of 1:2,000(actin), 1:1,000(cytochrome c, COX IV, Bax, Bak, p53, p38, P-p38), 1:500(P-JNK, JNK), 1:250 (AC, p73), or 1:400(LAMP-1, cathepsin B). Overnight incubations were performed in 5% milk in TBS-Tween. […]

[1] = system: mitochondria membrane potential in DU145 cells; assay: Mitochondria membrane potential measurement (JC-1); assay type: cell-based, human; settings: 5 μM
Procedure: Mitochondria membrane potential measurement. Cells were seeded at a density of 7.49×10^5 cells per plate in 60 mm plates overnight. The next day, media was replaced with media containing vehicle control or LCL204 (5 μM). Cells were lifted using Cell Stripper (Mediatech), washed twice in PBS, and resuspended in 3 ml 1×JC-1 reagent solution (dissolved in medium). Samples were incubated at 37° C. for 15 minutes, washed twice with PBS, and resuspended in 0.5 ml growth medium before analysis by flow cytometry using a Beckton-Dickinson FACSCalibur (590 nm/527 nm emission). A minimum of 10,000 events were scored for each sample.

p73 = assay: Immunoblot of p73; assay type: cell-based, human
Procedure: Immunoblot analysis. Cells were seeded in 60mm plates as described above and treated accordingly. Cells were lifted by gently scraping the plates, washed once with ice cold PBS and then lysed in lysis buffer (PBS, 1% Triton X-100, 10% glycerol) containing protease inhibitors pepstatin A (0.5 μg/ml), leupeptin (0.5 μg/ml), aprotinin (5 μg/ml), and PMSF (100 μg/ml) for 10 minutes on ice. Insoluble material was removed by centrifugation at 14,000 rpm for 15 minutes at 4° C. The supernatants were then supplemented with SDS at a final concentration of 2% and stored at −80° C. Protein concentrations were determined using the DC Protein Assay (BioRad Laboratories; Hercules, CA, USA) according to the manufacturer's instructions. 50 μg of protein per sample (unless otherwise indicated) were separated on NuPAGE 4-12% Bis-Tris gels (Invitrogen; Carlsbad, CA, USA) and transferred to nitrocellulose membranes (BioRad). Following transfer, membranes were blocked for 1 hour at room temperature in Tris-buffered saline (TBS) containing 0.1% Tween-20 and 5% nonfat dry milk and incubated overnight at 4° C. with primary antibody at a dilution of 1:2,000(actin), 1:1,000(cytochrome c, COX IV, Bax, Bak, p53, p38, P-p38), 1:500(P-JNK, JNK), 1:250 (AC, p73), or 1:400(LAMP-1, cathepsin B). Overnight incubations were performed in 5% milk in TBS-Tween. Following overnight incubation, membranes were washed three times for 10 minutes each in TBS-Tween and incubated for 1 hour at room temperature with secondary antibody in 5% milk TBS-Tween at a dilution 1:5,000 (goat anti-mouse IgG) or 1:50,000 (goat anti-rabbit). Membranes were then washed three times more and incubated for 5 minutes at room temperature with Super Signal HRP substrate (Pierce Biotechnology Inc.; Rockford, IL, USA).

cytochrome c = assay: Cytochrome c release into the cytosol (Western blot); assay type: cell-based, human; settings: 5 or 10 μM, DU145 cells
Procedure: as §1, with “(BioRad).” for “(BioRad). Following transfer, membranes were blocked for 1 hour at room temperature in Tris-buffered saline (TBS) containing 0.1% Tween-20 and 5% nonfat dry milk and incubated overnight at 4° C. with primary antibody at a dilution of 1:2,000(actin), 1:1,000(cytochrome c, COX IV, Bax, Bak, p53, p38, P-p38), 1:500(P-JNK, JNK), 1:250 (AC, p73), or 1:400(LAMP-1, cathepsin B). Overnight incubations were performed in 5% milk in TBS-Tween.”
Subcellular fractionation. […] Enzyme activity per 50 μg lysate was measured using the fluorogenic cathepsin B substrate 111 (Calbiochem) according to the manufacturer's protocol.

T1 sequence (P17405 47-631): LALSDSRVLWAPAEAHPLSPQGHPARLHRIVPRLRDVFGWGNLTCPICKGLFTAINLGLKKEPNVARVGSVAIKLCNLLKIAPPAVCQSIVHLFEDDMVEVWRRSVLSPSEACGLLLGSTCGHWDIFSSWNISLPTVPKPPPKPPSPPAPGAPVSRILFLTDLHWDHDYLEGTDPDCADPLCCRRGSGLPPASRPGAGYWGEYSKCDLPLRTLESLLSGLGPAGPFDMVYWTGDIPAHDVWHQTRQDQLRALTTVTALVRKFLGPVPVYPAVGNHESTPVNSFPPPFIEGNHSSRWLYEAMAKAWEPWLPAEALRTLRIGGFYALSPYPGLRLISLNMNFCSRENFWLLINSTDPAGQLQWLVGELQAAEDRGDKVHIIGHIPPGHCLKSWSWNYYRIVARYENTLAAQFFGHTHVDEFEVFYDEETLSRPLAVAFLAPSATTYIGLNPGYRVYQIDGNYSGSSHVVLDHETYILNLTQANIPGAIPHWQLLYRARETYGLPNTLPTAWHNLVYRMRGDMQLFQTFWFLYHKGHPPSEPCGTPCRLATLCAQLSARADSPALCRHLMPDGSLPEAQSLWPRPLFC

## CCCCCCCCCCCCCCN[C@H](CO)[C@H](O)c1ccc([N+](=O)[O-])cc1.Cl [LCL204, (1R,2R) D-threo-2-N-Tetradecylamino-1-(4′-nitrophenyl)-1,3-propandiol hydrochloride]
Lysosomes of DU145 cells; DU145 cells, 10 μM
  onset of the effect on lysosomal pH: as early as five minutes
Lysosomes of DU145 cells; DU145 cells, 1 hour, LCL204 10 μM, C6-ceramide 30 μM, B13 20 μM
  shift in LTR fluorescence (rise in lysosomal pH): induced the shift in LTR fluorescence
Lysosomes of DU145 cells; DU145 cells, one hour
  lysosome destabilization versus concentration: destabilized lysosomes in a concentration-dependent manner
Lysosomes of DU145 cells; prostate cancer cells
  earliest destabilization of the lysosomes: 5 min
ASMase
  earliest decrease in ASMase activity: 30 min
p38 MAPK
  time by which p38 MAPK phosphorylation was induced: ≤ 90 min
[1]
  earliest observed decrease in ΔΨm: 2 h
p73; PC-3 cells, 10 μM
  p73β induction: p73β induction was detected after only two hours
p73; PPC-1/pcDNA3 cells
  p73β induction: time-dependent p73β induction
Cytochrome c
  time by which cytochrome c release into the cytosol was detected: ≤ 4 h

Source: patent publication US8592419B2, “Ceramides and apoptosis-signaling ligand” (MUSC Foundation for Research Development, priority 2004, dated 2013)
